Test results from PMC5228037, “Discovery and Mechanistic Characterization of Selective Inhibitors of H2S-producing Enzyme: 3-Mercaptopyruvate Sulfurtransferase (3MST) Targeting Active-site Cysteine Persulfide” (Scientific Reports, 2017).

These compounds were tested against T1, rhodanese (thiosulfate sulfurtransferase, Type II) (Bos taurus, UniProt P00586) (assay: Rhodanese activity, conversion of cyanide to thiocyanide (Sörbo method)). Details: 100 μM compound; room temperature 5 min; mean ± S.D.
T1 construct: Bovine liver rhodanese; purchased Sigma-Aldrich; host or cells: bovine liver
T1 sequence (P00586 1-297): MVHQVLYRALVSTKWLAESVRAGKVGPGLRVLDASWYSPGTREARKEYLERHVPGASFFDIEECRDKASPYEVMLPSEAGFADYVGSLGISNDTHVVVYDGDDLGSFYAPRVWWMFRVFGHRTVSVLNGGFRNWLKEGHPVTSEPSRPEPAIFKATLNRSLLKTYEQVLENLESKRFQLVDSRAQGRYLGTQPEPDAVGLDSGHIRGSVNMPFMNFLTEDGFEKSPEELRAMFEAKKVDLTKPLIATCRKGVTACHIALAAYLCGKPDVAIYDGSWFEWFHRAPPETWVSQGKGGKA
Type: biochemical, bovine
Description: Figure 2 Selectivity assessment of hit compounds for 3MST over other H2S/polysulfides-producing enzymes and rhodanese. (a) 3MST-Inhibitory activity of hit compounds at 10 and 100 μM in cell lysate of 3MST-expressing HEK293 cells. 100 μM 3MP and 100 μM DTT were added to the solution containing 0.1% DMSO as a cosolvent, and the mixture was incubated at 37 °C for 15 min. H2S production was measured by gas chromatography. All data are presented as the mean ± S.D. (100 μM: n = 3 or 4; 10 μM: n = 3). (b) Selectivity assessment of hit compounds at 100 μM towards CBS and CSE. Only DMSO was added to the control sample instead of DMSO solution containing hit compounds. H2S production was monitored by gas chromatography. All data are presented as the mean (n = 3). (c) Detection method for rhodanese activity (Sörbo method). (d) Selectivity assessment of hit compounds towards rhodanese. The results are mean ± S.D. (n = 4, three times). These values were determined based upon the absorbance of [Fe(SCN)3] at 460 nm (Sӧrbo method). Bovine rhodanese 1.3–1.7 units/mL, substrate: 52 mM Na2S2O3, 50 mM KCN, 0.004% (w/v) BSA, 100 μM compound and DMSO 1% (v/v) in 88 mM potassium phosphate buffer (pH 8.6) at room temperature for 5 min incubation. (e) Fluorescence confocal microscopic images of live COS7 cells transfected with 3MST or an empty vector[9] as a control. Cells were incubated with 50 μM SSP4, a fluorescent probe for sulfane sulfur, and 10 μM, 1 μM, 0.5 μM, 0.1 or 0 μM compound 3 in DMEM containing 0.6% DMSO for 30 min, then washed with HBSS and placed in fresh DMEM with 0‒10 μM compound 3 (Pre). 500 μM 3MP was added to the cells and the cells were incubated for 10 min (10 min). (f) Graphic representation of (e). F/F0 was calculated by dividing the fluorescence intensity of cells after addition of 500 μM 3MP (10 min) by that of cells before addition of 500 μM 3MP (Pre), then the mean F/F0 was determined from 5 cells. All data represent the mean ± standard error of the mean (SEM) of three experiments.
Following reagents were prepared.
B. 125 mM sodium thiosulfate (Na2S2O3) solution
C. 250 mM potassium cyanide (KCN) solution in reagent A
D. 14% (w/v) nitric acid (HNO3) solution
E. 410 mM ferric nitrate (Fe(NO3)3) in reagent D
F. 37% formaldehyde solution
G. 12.5 mM sodium thiosulfate (Na2S2O3) solution with 0.025% bovine serum albumin H. rhodanese solution in reagent G […]
Mixed by pipetting and equilibrate d to room
Reagent H (Enzyme Solution) 16 µL 16 µL - Mixed by pipetting and incubate d at 25℃ for exactly 5 minutes , and then added […]
Mixed by pipetting and then added […]
Mixed by pipetting , transferred the solution 44 µL 44 µL 44 µL […]
Mixed by pipetting and recorded the A460 nm for the Test, Control and Blank using a microplate […]
Supplementary Figure S10. […]

Going from `Cc1cc(=O)[nH]c(SCC(=O)c2cccc3ccccc23)n1` [compound 3] to `NC(=O)c1ccsc1NC(=O)CSc1nc2ccccc2c(=O)[nH]1` [compound 1], the “Inhibition of rhodanese conversion of cyanide ions to thiocyanide ions” value rises from 1.7 ± 6.7% to 18.2 ± 3.6%.

`Cc1sc2nc(SCC(=O)c3ccc(O)cc3O)[nH]c(=O)c2c1C` [compound 2] and `O=C(O)c1cccc(NS(=O)(=O)c2ccccc2)c1` [compound 5] are within error of each other in “Inhibition of rhodanese conversion of cyanide ions to thiocyanide ions” value: 10.9 ± 5.5% for the first, 9.7 ± 4.5% for the second.
